Laboratory results: publication PMC5104425, “A Novel Selective Inhibitor of Delta-5 Desaturase Lowers Insulin Resistance and Reduces Body Weight in Diet-Induced Obese C57BL/6J Mice” (PLoS ONE, 2016)
Counter-ions that a name gives are not always drawn.

How the values were obtained:
Format in all cases: in vivo, C57BL/6J mice
DIO mice [1] = test: Anti-obesity effects in DIO mice, 6-week treatment (HFD D12492): BW, calorie intake, observations; conditions: sibutramine 30 mg/kg p.o.
Procedure: In this report, we performed 3 independent studies in DIO mice to characterize anti-obesity effects of our D5D specific inhibitor. Male C57BL/6J mice were obtained from Charles River Laboratories (Yokohama, Japan) or CLEA Japan (Osaka, Japan). The mice were fed a laboratory chow and water ad libitum and housed in a 12-h light/dark cycle. Compound or vehicle was administered once daily between 15: 00–19:00 by oral gavage. Body weight (BW) and food intake were monitored throughout the experiment.
(§1) Mice were fed a high-fat diet (HFD) that has 60% kcal from fat and contains 0.09% (w/w) AA (D12492; Research diets, Inc., see S1 Table for fatty acid profile) from 5 weeks of age, and they were divided into 5 groups (7 animals per group) at 11 weeks of age based on BW and daily food intake. In this experiment, 30 mg/kg sibutramine, a […], was used as a positive control for anti-obesity effects. Mice were orally administered compound-326 at doses of 0.1, 1, and 10 mg/kg, sibutramine at a dose of 30 mg/kg, or vehicle for 6 weeks. After 6 weeks, blood concentrations of DGLA and AA under non-fasting condition were evaluated as pharmacodynamics (PD) markers, and oral glucose tolerance test (OGTT) was performed.

D5D = test: Blood fatty acids (PD markers AA, DGLA, EPA, DHA) after 6-week treatment in DIO mice; conditions: sibutramine 30 mg/kg, 6 weeks
Procedure: Fatty acids were extracted from blood and tissues by adding hexane-isopropanol-butylated hydroxytoluene (60:40:0.01, v/v/w). Samples were vortexed for 30 min. The hexane phase was removed and evaporated to dryness under nitrogen stream and vacuum. Dried samples were dissolved in methanol and analyzed by HPLC.
as §1

DIO mice [2] = test: Oral glucose tolerance test and HOMA-IR after 6-week treatment in DIO mice; conditions: sibutramine 30 mg/kg, 6 weeks
Procedure: as §1
On the last day of the experiment, mice were given an oral glucose load (2 g/kg) after overnight fasting. Blood samples were collected at specified time points of 0 (pre-glucose/fasting glucose levels), 10, 30, 60, and 120 min post glucose load for the determination of plasma glucose as well as insulin levels. Plasma glucose was enzymatically measured with auto-analyzer 7180 (Hitachi High-Technologies Corporation, Tokyo, Japan). Plasma insulin was measured with mouse insulin ELISA kit (Shibayagi, Gunma, Japan). The total area under the glucose curve was determined from time 0 to 120 min (AUC0–120 min) after glucose administration. Homeostasis model assessment-insulin […] (HOMA-IR) was calculated using the formula: [(fasted PG: mg/dL)×(fasted insulin; μU/mL)[…]/405] [28].

CC(C)CC(N(C)C)C1(c2ccc(Cl)cc2)CCC1 (stereo not drawn) [sibutramine, Sibutramine hydrochloride monohydrate, reference compound]
BW (DIO mice [1]; 6 weeks, BW then increased in line with food intake): potent BW loss for a week
food intake (DIO mice [1]; from day 1, followed by a rebound): transient and potent decrease in food intake
blood AA level (D5D): slightly but significantly decreased
blood AA to DGLA ratio (D5D): slightly but significantly decreased
blood DGLA level (D5D): slightly but significantly decreased
HOMA-IR (DIO mice [2]): significantly improved
